Test [1] deals with Mus musculus. Description: Antioxidant activity in STZ-induced mouse model assessed as GSH-PX level at 1 umol/kg, ip administered for 20 days measured on day 21 (reference value: 1449.23 +/- 49.42 U/ml). It is filed as functional.
Test [2] deals with Mus musculus. Briefly: Antihyperglycemic activity in overnight fasted STZ-induced mouse model assessed as reduction of fasting blood glucose level at 1 umol/kg, ip administered for 20 days measured every 5 days up to 20 days. The test is classed as functional, organism-based.
The test system of test [3] is Mus musculus. Briefly: Antihyperglycemic activity in STZ-induced mouse model assessed as decrease in food intake at 1 umol/kg, ip administered for 20 days measured every 5 days up to 20 days. It is filed as functional, organism-based.
The test system of test [4] is Mus musculus. Briefly: Antihyperglycemic activity in STZ-induced mouse model assessed as decrease in water intake at 1 umol/kg, ip administered for 20 days measured every 5 days up to 20 days. The test is classed as functional, organism-based.
The subject of test [5] is Mus musculus. Briefly: Antioxidant activity in STZ-induced mouse model assessed as MDA level at 1 umol/kg, ip administered for 20 days measured on day 21 (reference value: 12.49 +/- 1.35 nmol/ml). The test is classed as functional.
Test [6] concerns Mus musculus. Description: Antioxidant activity in STZ-induced mouse model assessed as GSH level at 1 umol/kg, ip administered for 20 days measured on day 21 (reference value: 8.13 +/- 0.13 mg/ml). The test is classed as functional.
Test [7] has as its system Mus musculus. Briefly: Antihyperglycemic activity in STZ-induced mouse model assessed as decrease in body weight at 1 umol/kg, ip administered for 20 days measured every 5 days up to 20 days. It is filed as functional, organism-based.
Test [8] has as its system Mus musculus. Briefly: Antihyperglycemic activity in overnight fasted STZ-induced diabetic mouse model assessed as blood glucose level at 1 umol/kg, ip qd administered for 20 days measured after 20 days relative to control. The test is classed as functional.
The test system of test [9] is MIN6. Description: Inhibition of H202-induced apoptosis in mouse MIN6 cells assessed as change in nuclear fragmentation at 10 nM preincubated for 24 hrs followed by H202 challenge measured after 1 hr by Hoechst 33342 staining-based microscopic analysis. It is filed as functional, cell-based.
The subject of test [10] is MIN6. Description: Inhibition of palmitate-induced apoptosis in mouse MIN6 cells assessed as reduction of apoptotic cells at 10 nM preincubated for 24 hrs followed by palmitate challenge measured after 1 hr by Hoechst 33342 staining-based microscopic analysis. It is filed as functional, cell-based.
The test system of test [11] is Mus musculus. Briefly: Antioxidant activity in STZ-induced mouse model assessed as SOD level at 1 umol/kg, ip administered for 20 days measured on day 21 (reference value: 41.58 +/- 2.89 U/ml). The test is classed as functional.
Test [12] has as its system Mus musculus. Description: Antihyperglycemic activity in mouse assessed as decrease in blood glucose level at 1 umol/kg, ip pretreated with compound followed by glucose challenge measured after 30 to 60 mins by oral glucose tolerance test. It is filed as functional, organism-based.
Test [13] has as its system Mus musculus. Briefly: Antihyperglycemic activity in overnight fasted STZ-induced mouse model assessed as decrease in glycated hemoglobin level at 1 umol/kg, ip administered for 20 days measured on day 21. It is filed as functional, organism-based.
Test [14] concerns Mus musculus. Briefly: Antihyperglycemic activity in STZ-induced mouse model assessed as increase in islet number at 1 umol/kg, ip by hematoxylin and eosin staining technique. The test is classed as functional, organism-based.

The source made the active and inactive calls. The rule behind the calls is not given here.

For the substance H-KTMMKGMAGAA-OH, the Activity is 1707.69 U/ml in the test on Mus musculus [1]; 7.61 nmol/mL with Mus musculus [5]; 12.14 mg/mL with Mus musculus [6]; 11.8 mmol/L in the test on Mus musculus [8]; 46.96 U/ml with Mus musculus [11]. Besides, the outcome in the test with Mus musculus [2], in the test with Mus musculus [3], in the test with Mus musculus [4], in the test on Mus musculus [7], with MIN6 [9] and in the test with MIN6 [10] was Active. The outcome with Mus musculus [12], with Mus musculus [13] and in the test with Mus musculus [14] was Active.
Consider H-KTNMKHGAGAA-OH, for which, in the test with Mus musculus [8], the Activity turned out to be 21.82 mmol/L.
The same measure, in the same setting: the same measure for H-MTNMKGMAGAA-OH: 20.83 mmol/L; for H-GTNMKHMAGAA-OH: 15.26 mmol/L.
Take H-KTNMKHMAGAA-OH: the Activity with Mus musculus [8] is reported as 16.16 mmol/L.
As for H-KGNMKHMAGAA-OH, the Activity in the test on Mus musculus [8] amounted to 15.28 mmol/L.
Same read-out and setting: the same measure for H-KTNMKGMAGAM-OH: 20.18 mmol/L.
On to H-KTNMKGMAMAA-OH, for which the Activity with Mus musculus [8] was determined as 14.03 mmol/L.
On to H-KTGMKHMAGAA-OH, for which the Activity with Mus musculus [8] is on record as 14.36 mmol/L.
For the substance H-KTNGKHMAGAA-OH, the Activity with Mus musculus [8] was 18.34 mmol/L.
For H-KTNMKHMGGAA-OH, the Activity with Mus musculus [8] is on record as 18.02 mmol/L.
As to H-KTNMGHMAGAA-OH, the Activity in the test with Mus musculus [8] is 18.52 mmol/L.
Same read-out and setting: the value for H-KMNMKGMAGAA-OH was 13.44 mmol/L; that for H-KTNMKGMAGMA-OH was 17.38 mmol/L; that for H-KTNMKGMAGAA-OH was 13.29 mmol/L.

Source of the values: ChEMBL document CHEMBL3112516, “Design, synthesis and biological evaluation of novel peptide MC62 analogues as potential antihyperglycemic agents” (2014).
